# Tested on: substance P induced relaxation of the pig coronary arteries
# Test: Antagonism of substance P induced relaxation of the pig coronary arteries
# Format: cell-based
# Settings: Sus scrofa, 0.5 h; test compound 3 × 10^-7; response to 10^-9 M substance P; 30 min incubation
# Method: Antagonism of substance P induced relaxation of the pig coronary arteries
# Segments of coronary arteries taken from pigs (killed by injection of an overdose of sodium pentobarbital) were inverted and mounted for recording of isometric tension in organ baths (volume 20 ml) with the endothelium at the outside. The preparations were bathed in Krebs - Henseleit solution. The solution was kept at 37° C. and gassed with a mixture of O2 /CO2 (95/5). After stabilisation of the preparations, prostaglandin F2α (10^-5 M) was administered to induce a contraction. This was repeated until contractile responses became stable. Then prostaglandin F2α was again administered and substance P (3×10^-10 M and 10^-9 M cumulatively) was added. […] After washing away the agonists, a known concentration of a compound of formula (I) was added. After an incubation period of 30 minutes, prostaglandin F2α (10^-5 M) and the same concentrations of substance P as described above were again administered in the presence of the compound to be tested.
row,SMILES,inhibition at 0.3 µM [%]
1,Cc1cc(C)cc(C(=O)N2CC[C@H](N3CCC(Nc4nc5ccccc5n4Cc4ccccc4F)CC3)C[C@@H]2Cc2ccccc2)c1 (relative stereo) [Compound 3],35.2

# Same assay, conditions: Sus scrofa, 0.5 h; test compound 3 × 10^-8; response to 10^-9 M substance P; 30 min incubation
row,SMILES,inhibition at 0.03 µM [%]
1,Cc1ccc(Cn2c(NC3CCN([C@@H]4CCN(C(=O)c5cc(C(F)(F)F)cc(C(F)(F)F)c5)[C@H](Cc5ccccc5)C4)C3)nc3cccnc32)o1 (some centres unmarked) [Compound 30],87.5
2,Cc1cc(C)cc(C(=O)N2CC[C@H](N3CCC(Cc4nc5ccccc5n4Cc4csc(C)n4)CC3)C[C@@H]2Cc2ccccc2)c1 (relative stereo) [Compound 11],81.1
3,O=C(c1cc(C(F)(F)F)cc(C(F)(F)F)c1)N1CC[C@H](N2CCC(Oc3nc4ccccc4n3Cc3ccc(F)cc3)CC2)C[C@@H]1Cc1ccccc1 (relative stereo) [Compound 24],100
4,O=C(c1cc(C(F)(F)F)cc(C(F)(F)F)c1)N1CC[C@@H](N2CCC(Cc3nc4ccccc4n3Cc3ccc(F)cc3)CC2)C[C@H]1Cc1ccccc1 (relative stereo) [Compound 40],93.3
5,Cc1cc(C)cc(C(=O)N2CC[C@@H](N3CCC(Cc4nc5ccccc5n4Cc4csc(C)n4)CC3)C[C@@H]2Cc2ccccc2)c1 (relative stereo) [Compound 12],92.3
6,Cc1cc(C)cc(C(=O)N2CC[C@H](N3CCC(Nc4nc5ccccc5n4Cc4cccs4)CC3)C[C@@H]2Cc2ccccc2)c1 (relative stereo) [Compound 7],54
7,Cc1ccc(Cn2c(NC3CCN([C@@H]4CCN(C(=O)c5cc(C(F)(F)F)cc(C(F)(F)F)c5)[C@H](Cc5ccccc5)C4)CC3)nc3ccccc32)o1 (relative stereo) [Compound 28],100

# Same assay, conditions: Sus scrofa, 0.5 h; test compound 3 × 10^-9; response to 10^-9 M substance P; 30 min incubation
row,SMILES,inhibition at 0.003 µM [%]
1,O=C(c1cc(C(F)(F)F)cc(C(F)(F)F)c1)N1CC[C@@H](N2CCC(Cc3nc4ccccc4n3Cc3ccc(F)cc3)CC2)C[C@@H]1Cc1ccccc1 (relative stereo) [Compound 33],56.8
2,Cc1ccc(Cn2c(C(O)C3CCN([C@H]4CCN(C(=O)c5cc(C(F)(F)F)cc(C(F)(F)F)c5)[C@@H](Cc5ccccc5)C4)CC3)nc3ccccc32)o1 (some centres unmarked) [Compound 22],89.4
3,Cc1ncc(Cn2c(N[C@@H]3CCN(C(=O)c4ccco4)[C@@H](Cc4ccccc4)C3)nc3ccccc32)o1 (relative stereo) [Compound 46],17.6
4,CCOCCn1c(N[C@@H]2CCN(C(=O)c3cc(C(F)(F)F)ccc3C(F)(F)F)[C@H](Cc3ccc(Cl)cc3)C2)nc2ccccc21 (relative stereo) [Compound 145],92.2
5,Cc1ccc(Cn2c(NC3CCN([C@@H]4CCN(C(=O)c5cc(C(F)(F)F)cc(C(F)(F)F)c5)[C@@H](Cc5ccccc5)C4)CC3)nc3cccnc32)o1 (relative stereo) [Compound 20],68.9

# Same assay, conditions: test compound 3 × 10^-8; response to 10^-9 M substance P; 30 min incubation
row,SMILES,% inhibition [%]
1,"CCOCCn1c(NC2CCN(C3CCN(C(=O)c4cc(C(F)(F)F)cc(C(F)(F)F)c4)C(Cc4ccccc4)C3)C(Cc3ccccc3)C2)nc2ccccc21 (stereo not drawn) [Compound 14, 2α,4β-trans-1-[3,5-bis(trifluoromethyl)benzoyl]-4-[4-[[1-(2-ethoxyethyl)-1H-benzimidazol-2-yl]amino]-2-(phenylmethyl)-1-piperidinyl]-2-(phenylmethyl)piperidine]",53.3
